Measured values as given in US11384060B2, “Amide compounds and use thereof” (ALPHALA CO., LTD., priority 2017, dated 2022).

Legend:
[1] = molecular target: T1, glucagon receptor (GCGR) overexpressed CHO-K1 cells or human primary hepatocytes (Homo sapiens, UniProt P47871); assay: Glucagon cAMP inhibition assay (Cisbio cAMP Dynamic 2 HTRF); type: cell-based; conditions: inhibition of glucagon (EC50 concentration) induced cAMP production
T1 construct: expressed in transfected cells; host or cells: GCGR overexpressed CHO-K1 cells or human primary hepatocytes (endogenous receptor)
T1 sequence (P47871 26-477): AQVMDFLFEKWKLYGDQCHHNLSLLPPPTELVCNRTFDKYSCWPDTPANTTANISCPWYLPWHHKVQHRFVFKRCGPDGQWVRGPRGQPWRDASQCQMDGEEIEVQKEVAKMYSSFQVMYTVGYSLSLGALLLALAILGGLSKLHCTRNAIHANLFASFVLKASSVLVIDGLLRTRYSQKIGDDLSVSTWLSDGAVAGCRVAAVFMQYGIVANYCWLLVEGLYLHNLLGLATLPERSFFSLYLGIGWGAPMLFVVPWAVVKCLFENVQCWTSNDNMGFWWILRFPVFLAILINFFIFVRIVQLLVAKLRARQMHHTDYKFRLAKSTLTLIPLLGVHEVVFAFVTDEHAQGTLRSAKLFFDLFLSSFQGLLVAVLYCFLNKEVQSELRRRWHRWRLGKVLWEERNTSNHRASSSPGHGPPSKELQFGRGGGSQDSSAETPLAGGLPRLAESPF
Summary of the method: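 GCGR-overexpressing CHO-K1 cells or human primary hepatocytes in HBSS with 0.1% BSA and 800 nM IBMX, pre-incubated 30 min with serially diluted compounds (1% DMSO final), then stimulated 30 min at room temperature with glucagon at its EC50. cAMP measured by HTRF after 60 min lysis; IC50 by non-linear regression.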

glucagon receptor (GCGR) = molecular target: T2, glucagon receptor (GCGR) (Homo sapiens, UniProt P47871); assay: I125-glucagon binding assay (competition, GCGR membrane fractions); conditions: competition with I125-glucagon 0.0625 nM, membrane fractions of GCGR overexpressed CHO-K1 cells
T2 construct: expressed in transfected cells; host or cells: CHO-K1 cells overexpressing GCGR (membrane fractions)
T2 sequence (P47871 26-477): as above
Summary of the method: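 Membranes from CHO-K1 cells overexpressing GCGR, 7.5 μg/well in 50 mM Tris pH 7.4 with 0.5% BSA, were preincubated 5 min with serially diluted compounds, then given 0.0625 nM final I^125-glucagon for 30 min at 25° C. Bound label was filtered on PEI-coated GF/B and counted; IC50 by non-linear regression.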

IC50 cAMP [1] [nM]	IC50 (glucagon receptor (GCGR)) [nM]	SMILES
10292	1720	CC(C)[C@@H](COc1ccc(-c2cc3ccccc3o2)c(F)c1)Nc1ccc(C(=O)NCCS(=O)(=O)O)cc1 [Compound 8-4, (S)-2-(4-((1-(4-(benzofuran-2-yl)-3-fluorophenoxy)-3-methylbutan-2-yl)amino)benzamido)ethane-1-sulfonic Acid]
85	75	CC(C)[C@@H](COc1ccc(-c2ccc(C(F)(F)F)cc2Cl)c(F)c1)Nc1ccc(C(=O)NCCC(=O)O)cc1 [Compound 8-5, (S)-3-(4-((1-((2′-chloro-2-fluoro-4′-(trifluoromethyl)-[1,1′-biphenyl]-4-yl)oxy)-3-methylbutan-2-yl)amino)benzamido)propanoic Acid]
428	172	CC(C)C[C@@H](COc1ccc(-c2ccc(C(F)(F)F)cc2F)c(F)c1)Nc1ccc(C(=O)NCCC(=O)O)cc1 [Compound 8-6, (S)-3-(4-((1-((2,2′-difluoro-4′-(trifluoromethyl)-[1,1′-biphenyl]-4-yl)oxy)-4-methylpentan-2-yl)amino)benzamido)propanoic Acid]
129	186	CC[C@H](C)[C@@H](COc1ccc(-c2cc3ccccc3o2)c(F)c1)Nc1ccc(C(=O)NCCC(=O)O)cc1 [Compound 8-7, 3-(4-(((2S,3S)-1-(4-(benzofuran-2-yl)-3-fluorophenoxy)-3-methylpentan-2-yl)amino)benzamido)propanoic Acid]
500	277	CC[C@H](C)[C@@H](COc1ccc(-c2ccc(C(F)(F)F)cc2Cl)c(F)c1)Nc1ccc(C(=O)NCCC(=O)O)cc1 [Compound 8-8, 3-(4-(((2S,3S)-1-((2′-chloro-2-fluoro-4′-(trifluoromethyl)-[1,1′-biphenyl]-4-yl)oxy)-3-methylpentan-2-yl)amino)benzamido)propanoic Acid]
365	145	CC(C)[C@@H](COc1ccc(-c2ccc(Cl)cc2Cl)c(F)c1)Nc1ccc(C(=O)NCCC(=O)O)cc1 [Compound 8-9, (S)-3-(4-((1-((2′,4′-dichloro-2-fluoro-[1,1′-biphenyl]-4-yl)oxy)-3-methylbutan-2-yl)amino)benzamido)propanoic Acid]
353.2	186	CC[C@H](C)[C@@H](COc1ccc(-c2ccc(C(F)(F)F)cc2F)c(F)c1)Nc1ccc(C(=O)NCCC(=O)O)cc1 [Compound 8-10, 3-(4-(((2S,3S)-1-((2,2′-difluoro-4′-(trifluoromethyl)-[1,1′-biphenyl]-4-yl)oxy)-3-methylpentan-2-yl)amino)benzamido)propanoic Acid]
269.1	51	CC[C@H](C)[C@@H](COc1ccc(-c2ccc(Cl)cc2Cl)c(F)c1)Nc1ccc(C(=O)NCCC(=O)O)cc1 [Compound 8-11, 3-(4-(((2S,3S)-1-((2′,4′-dichloro-2-fluoro-[1,1′-biphenyl]-4-yl)oxy)-3-methylpentan-2-yl)amino)benzamido)propanoic Acid]
1243	227	CC(C)[C@@H](COc1ccc(-c2cc(Cl)cc(Cl)c2)c(F)c1)Nc1ccc(C(=O)NCCC(=O)O)cc1 [Compound 8-12, (S)-3-(4-((1-((3′,5′-dichloro-2-fluoro-[1,1′-biphenyl]-4-yl)oxy)-3-methylbutan-2-yl)amino)benzamido)propanoic Acid]
84	44	CCCC[C@@H](COc1ccc(-c2cc3ccccc3o2)c(F)c1)Nc1ccc(C(=O)NCCC(=O)O)cc1 [Compound 8-13, (S)-3-(4-((1-(4-(benzofuran-2-yl)-3-fluorophenoxy)hexan-2-yl)amino)benzamido) propanoic Acid]
250	251	CC[C@H](C)[C@@H](COc1ccc(-c2ccc(C(F)(F)F)cc2)c(F)c1)Nc1ccc(C(=O)NCCC(=O)O)cc1 [Compound 8-14, 3-(4-(((2S,3S)-1-((2-fluoro-4′-(trifluoromethyl)-[1,1′-biphenyl]-4-yl)oxy)-3-methylpentan-2-yl)amino)benzamido)propanoic Acid]
129	59	CCCC[C@@H](COc1ccc(-c2ccc(C(F)(F)F)cc2Cl)c(F)c1)Nc1ccc(C(=O)NCCC(=O)O)cc1 [Compound 8-15, (S)-3-(4-((1-((2′-chloro-2-fluor-4′-(trifluromethyl)-[1,1′-biphenyl]-4-yl)oxy)hexan-2-yl)amino)benzamido)propanoic Acid]
135	89	CCCC[C@@H](COc1ccc(-c2ccc(Cl)cc2Cl)c(F)c1)Nc1ccc(C(=O)NCCC(=O)O)cc1 [Compound 8-16, (S)-3-(4-((1-((2′,4′-dichloro-2-fluoro-[1,1′-biphenyl]-4-yl)oxy)hexan-2-yl)amino)benzamido)propanoic Acid]
227.6	308	CCCC[C@@H](COc1ccc(-c2ccc(C(F)(F)F)cc2F)c(F)c1)Nc1ccc(C(=O)NCCC(=O)O)cc1 [Compound 8-17, (S)-3-(4-((1-((2,2′-difluoro-4′-(trifluoromethyl)-[1,1′-biphenyl]-4-yl)oxy)hexan-2-yl)amino)benzamido)propanoic Acid]
153.5	158	CCCC[C@@H](COc1ccc(-c2ccc(C(F)(F)F)cc2)c(F)c1)Nc1ccc(C(=O)NCCC(=O)O)cc1 [Compound 8-18, (S)-3-(4-((1-((2-fluoro-4′-(trifluoromethyl)-[1,1′-biphenyl]-4-yl)oxy)hexan-2-yl)amino)benzamido)propanoic Acid]
182	101	CC(C)C[C@@H](COc1ccc(-c2ccc(Cl)cc2Cl)c(F)c1)Nc1ccc(C(=O)NCCC(=O)O)cc1 [Compound 8-19, (S)-3-(4-((1-((2′,4′-dichloro-2-fluoro-[1,1′-biphenyl]-4-yl)oxy)-4-methylpentan-2-yl)amino)benzamido)propanoic Acid]
234	83	CC(C)C[C@@H](COc1ccc(-c2cc3ccccc3o2)c(F)c1)Nc1ccc(C(=O)NCCC(=O)O)cc1 [Compound 8-20, (S)-3-(4-((1-(4-(benzofuran-2-yl)-3-fluorophenoxy)-4-methylpentan-2-yl)amino)benzamido)propanoic Acid]
181	111	CC(C)(C)[C@@H](COc1ccc(-c2cc3ccccc3o2)c(F)c1)Nc1ccc(C(=O)NCCC(=O)O)cc1 [Compound 8-21, (S)-3-(4-((1-(4-(benzofuran-2-yl)-3-fluorophenoxy)-3,3-dimethylbutan-2-yl)amino)benzamido)propanoic Acid]
166.9	68	CC(C)(C)[C@@H](COc1ccc(-c2ccc(Cl)cc2Cl)c(F)c1)Nc1ccc(C(=O)NCCC(=O)O)cc1 [Compound 8-22, (S)-3-(4-((1-((2′,4′-dichloro-2-fluoro-[1,1′-biphenyl]-4-yl)oxy)-3,3-dimethylbutan-2-yl)amino)benzamido)propanoic Acid]
89.46	81	CC(C)(C)[C@@H](COc1ccc(-c2ccc(C(F)(F)F)cc2F)c(F)c1)Nc1ccc(C(=O)NCCC(=O)O)cc1 [Compound 8-23, (S)-3-(4-((1-((2,2′-difluoro-4′-(trifluoromethyl)-[1,1′-biphenyl]-4-yl)oxy)-3,3-dimethylbutan-2-yl)amino)benzamido)propanoic Acid]
2701	366	CCCC[C@@H](COc1ccc(-c2nnc(C(F)(F)F)o2)c(F)c1)Nc1ccc(C(=O)NCCC(=O)O)cc1 [Compound 8-24, (S)-3-(4-((1-(3-fluoro-4-(5-(trifluoromethyl)-1,3,4-oxadiazol-2-yl)phenoxy)hexan-2-yl)amino)benzamido)propanoic Acid]
653	95	CC(C)[C@@H](COc1ccc(-c2nc3ccccc3s2)c(F)c1)Nc1ccc(C(=O)NCCC(=O)O)cc1 [Compound 8-25, (S)-3-(4-((1-(4-(benzo[d]thiazol-2-yl)-3-fluorophenoxy)-3-methylbutan-2-yl)amino)benzamido)propanoic Acid]
386.1	125	CC(C)[C@@H](COc1ccc(-c2cc3ccccc3o2)cc1)Nc1cnc(C(=O)NCCC(=O)O)cn1 [Compound 9-1, (S)-3-(5-((1-(4-(benzofuran-2-yl)phenoxy)-3-methylbutan-2-yl)amino)pyrazino-2-carboxamido)propanoic Acid]
427	363	CC[C@H](C)[C@@H](COc1ccc(-c2ccc(Cl)cc2Cl)cc1)Nc1cnc(C(=O)NCCC(=O)O)cn1 [Compound 9-2, 3-(5-(((2S,3 S)-1-((2′,4′-dichloro-[1,1′-biphenyl]-4-yl)oxy)-3-methylpentan-2-yl)amino)pyrazine-2-carboxamido)propanoic Acid]
487	120	CC(C)[C@@H](COc1ccc(-c2ccc(C(F)(F)F)cc2)cc1)Nc1ccc(C(=O)NCCC(=O)O)nc1 [Compound 9-3, (S)-3-(5-((3-methyl-1-((4′-(trifluoromethyl)-[1,1′-biphenyl]-4-yl)oxy)butan-2-yl)amino)picolinamido)propanoic Acid]
